Patent publication US4757055A, “Method for selectively controlling unwanted expression or function of foreign nucleic acids in animal or mammalian cells” (The Johns Hopkins University, priority 1984, dated 1988)

Assays:
E. coli B = assay: Colony formation by E. coli B (Example 1); assay type: cell-based; conditions: 37° C.
Experimental: (1) E. coli, E. coli B was grown in M-9 medium supplemented with glucose ([…]) and 1% casamino acids. The cells were harvested in mid-log phase and resuspended in 50 μL of fresh medium containing 0-160 μM oligomer at a final cell density of 1×10^4 cells/mL. The cells were incubated for 1 h at 37° C. and then diluted with 0.9 mL of medium. A 0.8-mL aliquot was added to 2.5 mL of 0.8% Bactoagar at 45° C. This solution was quickly poured onto a 100-mm plate containing solid 1.2% Bactoagar. After solidification, the plates were incubated overnight at 37° C. and the resulting colonies were counted.

[1] = tested on: transformed human fibroblast (HTB 1080) cells; assay: Colony formation by transformed human fibroblasts (Example 1); assay type: cell-based; conditions: 50 μM; 37° C.
Experimental: (2) Transformed Syrian Hamster Embryonic Fibroblasts (BP-6) and Transformed Human Fibroblasts (HTB1080). Colony formation by the fibroblasts in the presence of the methylphosphonate analogues was carried out as described by Miller et al, Biochemistry 16, 1988 (1977).

Substance: d-ApT
- % inhibition of colony formation, E. coli B (E. coli B; 50 μM): 4%
- % inhibition of colony formation, E. coli B (E. coli B; 160 μM): 5%
- % inhibition of colony formation, HBT 1080 [1]: 12%
